Several values for one entry are separate records, joined by “and”; a condition that tells them apart may be missing. Equal entries are not always repeated. Where two headings read alike, the source gives them in different places.
Experiments:
ADORA2A = ADORA2A (Homo sapiens, UniProt P29274); test: GPCR screening, calcium flux (calcium mobilization), antagonist format; assay type: cell-based
Method: To ascertain whether the compounds are suitable A2aR antagonists, the compounds of formulae I, II, III, and IV were subjected to GPCR screening using A2aR as the target. The screening was done using the GPCR Screening and Profiling Services by Eurofins DiscoverX Corporation.
The compounds of formulae I, II, III, and IV were screened for GPCR activity using A2aR as the target.
Cell lines were expanded from freezer stocks according to standard procedures. Cells were seeded in a total volume of 20 μL into black-walled, clear-bottom, Poly-D-lysine coated 384-well microplates and incubated at 37° C. for the appropriate time prior to testing.
Assays were performed in 1× Dye Loading Buffer consisting of 1× Dye, 1× Additive A and 2.5 mM Probenecid in HBSS/20 mM Hepes. Probenicid was prepared fresh. Cells were loaded with dye prior to testing. Media was aspirated from cells and replaced with 20 μL Dye Loading Buffer. Cells were incubated for 30-60 minutes at 37° C.
For antagonist determination, cells were pre-incubated with sample followed by agonist challenge at the EC80 concentration. Intermediate dilution of sample stocks was performed to generate 3× sample in assay buffer. After dye loading, cells were removed from the incubator and 10 μL 3× sample was added. Cells were incubated for 30 minutes at room temperature in the dark to equilibrate plate temperature. Vehicle concentration was 1%. Compound antagonist activity was measured on a FLIPR Tetra (MDS). Calcium mobilization was monitored for 2 minutes and 10 μL EC80 agonist in HBSS/20 mM Hepes was added to the cells 5 seconds into the assay.
For antagonist and negative allosteric modulation mode assays, percentage inhibition is calculated using the following formula: % Inhibition=100%×(1−(mean RFU of test sample−mean RFU of vehicle control)/(mean RFU of EC80 control−mean RFU of vehicle control)).
When the calcium was released, the fluorescence of the dye was increased and the increase was measured in real-time.
FIGS. 1 to 6 show percent reacted (Y) versus concentration in μM (X). Compounds were tested in antagonist mode with the requested GPCR Biosensor Assay. For the antagonist assay, data was normalized to the maximal and minimal response observed in the presence of EC80 ligand and vehicle.

[1] = Plasma pharmacokinetics in male CD-1 mice (1 mg/kg i.v. or 3 mg/kg p.o.); details: CD-1, mouse, in vivo
Method: (§1) Male CD-1 mice were given either bolus 1 mg/kg i.v. or 3 mg/kg p.o. of the indicated compounds and plasma or brain concentrations were measured.
(§2) Where: • C0 concentration extrapolated to time zero following an i.v. dose • tmax time at which maximum concentration is observed • Cmax maximum observed concentration • Apparent t1/2 apparent terminal half-life • AUC0-tlast area under the concentration vs time curve from time 0 to the time of the last measurable concentration • AUC0-inf area under the concentration vs time curve from time 0 to infinity • CL systemic clearance • MRT0-inf mean residence time from time zero to infinity • Vss steady-state volume of distribution • F oral bioavailability=(Dose^iv*AUC^po)/(Dose^po*AUC^iv)*100

[2] = Brain pharmacokinetics and brain/plasma ratio in male CD-1 mice (1 mg/kg i.v.); assay type: in vivo; details: for Brain concentration / concentration at 5 min / concentration at 0.25 h / concentration at 0.5 h / concentration at 1 h / concentration at 2 h / concentration at 4 h / concentration at 6 h / concentration at 8 h: 1 mg/kg bolus i.v.; for concentration at 5 min / concentration at 0.25 h / concentration at 0.5 h / concentration at 1 h / concentration at 2 h / concentration at 4 h / concentration at 6 h / concentration at 8 h: intravenous, 1 mg/kg
Method: as §1, §2

[3] = male, CD-1, mouse, iv, brain, i.v. 1 mg/kg

Chain of ADORA2A (P29274 whole entry): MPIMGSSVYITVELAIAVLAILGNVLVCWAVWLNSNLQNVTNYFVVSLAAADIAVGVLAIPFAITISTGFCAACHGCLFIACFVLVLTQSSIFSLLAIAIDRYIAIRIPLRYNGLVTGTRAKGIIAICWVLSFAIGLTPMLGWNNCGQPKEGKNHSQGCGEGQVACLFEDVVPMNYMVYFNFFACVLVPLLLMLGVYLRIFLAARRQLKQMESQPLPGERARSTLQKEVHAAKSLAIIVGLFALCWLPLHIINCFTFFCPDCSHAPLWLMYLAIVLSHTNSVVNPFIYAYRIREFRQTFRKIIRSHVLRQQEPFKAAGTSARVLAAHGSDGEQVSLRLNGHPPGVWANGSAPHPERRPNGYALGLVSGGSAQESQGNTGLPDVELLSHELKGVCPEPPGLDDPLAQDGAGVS

- Curve Bottom (ADORA2A; Antagonist format): 5.0984
- Curve Top (ADORA2A; Antagonist format): 98
- Hill (ADORA2A; Antagonist format): 1.3853
- Emax (ADORA2A; read-out: Max Response): 97.1%
- bioavailability [1]: 21.5%
- AUC(0-inf) ([1]; iv, 1 mg/kg): 1580 ng·h/mL
- AUC(0-t) ([1]; iv, 1 mg/kg): 1280 ng·h/mL
- Cmax ([1]; iv, 1 mg/kg): 360 ng/mL
- MRT inf ([1]; iv, 1 mg/kg): 4.73 h
- Tmax ([1]; iv, 1 mg/kg): 0.25 h
- Vd ([1]; iv, 1 mg/kg): 3 L/kg
- clearance ([1]; iv, 1 mg/kg): 10.6 mL/min/kg
- half-life ([1]; iv, 1 mg/kg): 3.39 h
- AUC(0-inf) ([1]; po, 3 mg/kg): 1020 ng·h/mL
- AUC(0-t) ([1]; po, 3 mg/kg): 988 ng·h/mL
- Cmax ([1]; po, 3 mg/kg): 124 ng/mL
- MRT inf ([1]; po, 3 mg/kg): 7.55 h
- Tmax ([1]; po, 3 mg/kg): 1 h
- half-life ([1]; po, 3 mg/kg): 4.44 h
- Brain concentration ([2]; 5 min, individual animals 1-3): 383 ng/g and 368 ng/g
- Brain concentration ([2]; 0.25 h, individual animals 1-3): 454 ng/g and 394 ng/g
- Brain concentration ([2]; 0.5 h, individual animals 1-3): 457 ng/g and 304 ng/g
- Brain concentration ([2]; 1 h, individual animals 1-3): 348 ng/g and 354 ng/g
- Brain concentration ([2]; 2 h, individual animals 1-3): 239 ng/g and 224 ng/g
- Brain concentration ([2]; 4 h, individual animals 1-3): 165 ng/g and 113 ng/g
- Brain concentration ([2]; 6 h, individual animals 1-3): 94.1 ng/g and 81.5 ng/g
- Brain concentration ([2]; 8 h, individual animals 1-3): 63.9 ng/g and 38.8 ng/g
- AUC0-tlast ([2]; brain, i.v. 1 mg/kg): 1315 ng·h/g
- AUC(0-inf) ([2]; brain, i.v. 1 mg/kg): 1517 ng·h/g
- concentration at 5 min ([2]; male, CD-1, mouse, brain, 5 min, individual animals 1-3, read-out: Brain concentration): 490 ng/g
- concentration at 5 min ([2]; male, CD-1, mouse, brain, 5 min, read-out: Brain concentration, Mean): 414 ng/g
- concentration at 0.25 h ([2]; male, CD-1, mouse, brain, 0.25 h, individual animals 1-3, read-out: Brain concentration): 379 ng/g
- concentration at 0.25 h ([2]; male, CD-1, mouse, brain, 0.25 h, read-out: Brain concentration, Mean): 409 ng/g
- concentration at 0.5 h ([2]; male, CD-1, mouse, brain, 0.5 h, individual animals 1-3, read-out: Brain concentration): 379 ng/g
- concentration at 0.5 h ([2]; male, CD-1, mouse, brain, 0.5 h, read-out: Brain concentration, Mean): 380 ng/g
- concentration at 1 h ([2]; male, CD-1, mouse, brain, 1 h, individual animals 1-3, read-out: Brain concentration): 262 ng/g
- concentration at 1 h ([2]; male, CD-1, mouse, brain, 1 h, read-out: Brain concentration, Mean): 321 ng/g
- concentration at 2 h ([2]; male, CD-1, mouse, brain, 2 h, individual animals 1-3, read-out: Brain concentration): 212 ng/g
- concentration at 2 h ([2]; male, CD-1, mouse, brain, 2 h, read-out: Brain concentration, Mean): 225 ng/g
- concentration at 4 h ([2]; male, CD-1, mouse, brain, 4 h, individual animals 1-3, read-out: Brain concentration): 96.9 ng/g
- concentration at 4 h ([2]; male, CD-1, mouse, brain, 4 h, read-out: Brain concentration, Mean): 125 ng/g
- concentration at 6 h ([2]; male, CD-1, mouse, brain, 6 h, individual animals 1-3, read-out: Brain concentration): 90.1 ng/g
- concentration at 6 h ([2]; male, CD-1, mouse, brain, 6 h, read-out: Brain concentration, Mean): 88.6 ng/g
- concentration at 8 h ([2]; male, CD-1, mouse, brain, 8 h, individual animals 1-3, read-out: Brain concentration): 45.5 ng/g
- concentration at 8 h ([2]; male, CD-1, mouse, brain, 8 h, read-out: Brain concentration, Mean): 49.4 ng/g
- Cmax [2, 3]: 414 ng/g
- Tmax [2, 3]: 5 min
- half-life ([2]; male, CD-1, mouse, iv, brain, i.v. 1 mg/kg, read-out: Apparent t1/2 (converted)): 2.83 h
- MRT inf ([2]; male, CD-1, mouse, iv, brain, i.v. 1 mg/kg, read-out: MRT0-inf): 3.94 h
SMILES: CCn1c(=S)c2c(nc(/C=C/c3ccc(OC)c(OC)c3)n2C)n(CC)c1=O [Formula III, 8-[(E)-2-(3,4-dimethoxyphenyl)vinyl]-1,3-diethyl-7-methyl-6-thioxo-purin-2-one]

— patent US12570656B2, “Purine compounds for treating disorders” (MARVEL BIOTECHNOLOGY, priority 2020, dated 2026)
